# Tests used:
# Type in all cases: cell-based
# [1] = target: T1, MRGPRX2 (Homo sapiens, UniProt Q96LB1); experiment: MRGPRX2 FLIPR calcium mobilization assay; design: host or cells: CHO-K1; conditions: CHO-K1 cells stably expressing human MRGPRX2; Ca2+ release; agonist Cortistatin-14 at EC80
# T1 sequence (Q96LB1 1-330): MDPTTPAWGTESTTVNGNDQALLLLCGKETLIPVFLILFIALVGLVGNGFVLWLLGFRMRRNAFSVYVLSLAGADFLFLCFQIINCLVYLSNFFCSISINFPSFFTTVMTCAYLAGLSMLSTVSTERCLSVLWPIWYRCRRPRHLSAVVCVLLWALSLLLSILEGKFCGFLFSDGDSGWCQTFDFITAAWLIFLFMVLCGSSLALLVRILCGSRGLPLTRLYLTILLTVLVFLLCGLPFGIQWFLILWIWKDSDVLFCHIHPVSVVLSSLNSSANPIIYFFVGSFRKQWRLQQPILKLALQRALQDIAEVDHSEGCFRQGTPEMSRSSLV
# Procedure: Chinese hamster ovary (CHO-K1) cells stably expressing human MRGPRX2 were purchased from Genescript (Piscataway, NJ). The cells were maintained in culture medium (Ham's F-12K) containing 10% (v/v) FBS, 200 μg/mL Zeocin, 100 units/mL penicillin G and 100 μg/mL streptomycin (Life Technologies, Carlsbad, CA). For the assay, the cells were harvested and resuspended with culture medium without Zeocin before plating at 8000 cells per well in 20 μL in 384-well black clear bottom cell culture plates (VWR, Radnor, PA). After 24 hour culture at 37° C. and 5% CO2, the cells were loaded with 20 μL/well of calcium dye (FLIPR Calcium 6 Assay Kit, Molecular Devices, San Jose, CA) diluted in loading buffer (1× Hank's Balanced Salt Solution (HBSS), 5 mM probenecid, 20 mM 4-(2-hydroxyethyl)-1-piperazineethanesulfonic acid (HEPES), pH 7.4, VWR, Radnor, PA) followed with 45 min incubation at 37° C. and 40 min. at r.t. in the dark. Cells were then treated with the addition of 10 uL/well test compounds with a range of increasing concentrations diluted in the assay buffer (1×HBSS, 20 mM HEPES, pH 7.4, VWR, Radnor, PA) with FLIPR Penta (Molecular Devices. San Jose, CA) and incubated for 30 min. at r.t. Ca^2+ release was measured with FLIPR Penta with 10 s basal fluorescence measurement, then 12.5 μL of 5× agonist Cortistatin-14 (Tocris, Minneapolis, MN) at final concentration corresponding to the EC80 were added followed with continued fluorescence signal monitoring for an additional 110 s. The base line adjusted (median of first 10 s base line) max value of the Relative Fluorescence Unit (RFU) was plotted against compound concentrations. Wells with no compound were served as the positive controls, and wells with high concentration of reference antagonist were used as negative controls. IC50 curves were globally fitted with 3- or 4-parameter Hill equation in a Genedata Screener (Genedata Basel, Switzerland).
# [2] = target: T1, MRGPRX2; experiment: MRGPRX2 IP1 HTRF assay; design: host or cells: CHO-K1; conditions: CHO-K1 cells stably expressing human MRGPRX2; IP1 accumulation; agonist Cortistatin 14 1 μM
# Procedure: This assay measures compound inhibition of myo-Inositol 1 phosphate (IP1) accumulation in CHO-K1 cells. Chinese hamster ovary (CHO-K1) cells stably expressing human MRGPRX2 were purchased from GenScript (Piscataway, NJ).
# For the HTRF IP1 determination, an IP-One GqKit (Perkin Elmer Cisbio, Waltham, MA), which includes all reagents and buffers in this protocol, was used. The cells were maintained in culture medium (Ham's F-12K) containing 10% (v/v) FBS, and 200 μg/mL Zeocin. For the assay, the cells were harvested and resuspended in culture medium with 2% FBS and without Zeocin, then were passed through a 40 μm filter. Cells were added at 20000 cells in a 5 μL/well to a 384-well white small volume cell culture plate (Greiner VWR, Radnor, PA) which contained 50 nL/well of test compound serially diluted at a selected concentration range in DMSO. 5 μL/well of prepared 2× Stimulation Buffer 2 was then added to plates and was incubated at 37° C. with 5% CO2 for 1 h. 5 μL/well of agonist Cortistatin 14 (Bio-TechneR&D Systems, Minneapolis, MN) in 1× Stimulation Buffer 2, for a 1 μM final concentration, was then added to plates and incubated at 37° C. with 5% CO2 for 1 h. 6 μL/well of 1:20 diluted Detection Reagent Mix (d2 and Cryptate) was added to the plates and incubated for 1 h in the dark. Plates were read on the PHERAstar microplate reader (BMG Labtech Cary, NC) to determine the HTRF ratio of the acceptor and donor emission signals. The IP1 concentrations were calculated from a standard curve following the IP-One GQ kit instructions. Wells with DMSO only and wells with high concentration of reference antagonist were used as controls for normalization. Compound IC50 curves were globally fitted with 3- or 4-parameter Hill equation in a Genedata Screener (Genedata Basel, Switzerland).
# [3] = target: T1, MRGPRX2; experiment: MRGPRX2 β-Arrestin assay; design: host or cells: PathHunter CHO-K1; conditions: PathHunter CHO-K1 MRGPRX2 β-Arrestin cell line; agonist Cortistatin 14 0.25 μM
# From the text: This assay measures compound inhibition of β-Arrestin recruitment, which is part of the G protein-independent pathway that results from the ligand-activated GPCR phosphorylation by specific GPCR kinases. The PathHunter CHO-K1 MRPGRX2 β-Arrestin Cell line stably expressing ProLink tagged MRGPRX2 and Enzyme Acceptor Tagged β-Arrestin was purchased from Eurofins DiscoverX, (Fremont, CA).
# The cells were maintained in culture medium from the Europhins DiscoverX Cell Culture Kit-107 which includes FBS, hygromycin B and G418. For the assay, the cells were harvested and were resuspended with Cell Plating Reagent 2 (Eurofins DiscoverX). Cells were added 10000 cells in 25 μL/well to a 384-well black cell culture plate (Greiner VWR, Radnor, PA) which contained 125 nL/well of compound at a selected serially diluted concentration range or DMSO. The plate was incubated at 37° C. with 5% CO2 for 1 h. 2 μL/well of agonist Cortistatin 14 was diluted in Protein Dilution Buffer, (Eurofins DiscoverX) for a final concentration of 0.25 μM, was added and the plate was incubated at 37° C. with 5% CO2 for 90 min. 14 μL/well of Detection Reagent Mix (PathHunter Detection Kit, Eurofins DiscoverX) was added to the plates and further incubated for 1 h in the dark. Plates were read on the PHERAstar microplate reader (BMG Labtech Cary, NC) measuring luminescence 0.1 to 1 s per well. Data was normalized using DMSO only wells and wells with high concentration of reference antagonist as controls. Compound IC50 curves were globally fitted with 3- or 4-parameter Hill equation in a Genedata Screener (Genedata Basel, Switzerland).
Structure (SMILES),IC50 [1] [nM],IC50 [2] [nM],IC50 [3] [nM]
"Cn1c(N[C@@H]2CCC[C@H](Nc3cc(C(F)(F)F)nc4ccc(Cl)cc34)C2)nc2cccnc21 [Example 21, (1S,3R)-N^1-(6-Chloro-2-(trifluoromethyl)quinolin-4-yl)-N^3-(3-methyl-3H-imidazo[4,5-b]pyridin-2-yl)cyclohexane-1,3-diamine]",0.1 to 100,0.1 to 100,0.1 to 100
"Fc1ccc2nc(C(F)(F)F)cc(N[C@H]3CCC[C@@H](Nc4nnc5ccccn45)C3)c2c1 [Example 33, (1R,3S)-N^1-([1,2,4]Triazolo[4,3-a]pyridin-3-yl)-N^3-(6-fluoro-2-(trifluoromethyl)quinolin-4-yl)cyclohexane-1,3-diamine]",0.1 to 100,0.1 to 100,0.1 to 100
"Cn1cnc2ccnc(N[C@@H]3CCC[C@H](Nc4cc(C(F)(F)F)nc5ccccc45)C3)c21 [Example 15, (1R,3S)-N^1-(3-Methyl-3H-imidazo[4,5-c]pyridin-4-yl)-N^3-(2-(trifluoromethyl)quinolin-4-yl)cyclohexane-1,3-diamine]",0.1 to 100,100 to 1000,0.1 to 100
"Cn1cnc2ccnc(N[C@@H]3CCC[C@H](Nc4cc(C(F)(F)F)nc5ccc(Br)cc45)C3)c21 [Example 16, (1S,3R)-N^1-(6-Bromo-2-(trifluoromethyl)quinolin-4-yl)-N^3-(3-methyl-3H-imidazo[4,5-c]pyridin-4-yl)cyclohexane-1,3-diamine]",0.1 to 100,0.1 to 100,0.1 to 100
"FC(F)(F)c1cc(N[C@H]2CCC[C@@H](Nc3nnc4ccccn34)C2)c2cc(Cl)ccc2n1 [Example 24, (1R,3S)-N^1-([1,2,4]Triazolo[4,3-a]pyridin-3-yl)-N^3-(6-chloro-2-(trifluoromethyl)quinolin-4-yl)cyclohexane-1,3-diamine]",0.1 to 100,0.1 to 100,0.1 to 100
"Cn1cnc2ccnc(N[C@@H]3CCC[C@H](Nc4cc(C(F)(F)F)nc5ccc(F)cc45)C3)c21 [Example 14, (1S,3R)-N^1-(6-Fluoro-2-(trifluoromethyl)quinolin-4-yl)-N^3-(3-methyl-3H-imidazo[4,5-c]pyridin-4-yl)cyclohexane-1,3-diamine]",0.1 to 100,0.1 to 100,0.1 to 100
"Cc1cc2c(N[C@@H]3CCC[C@H](Nc4cc(C(F)(F)F)nc5ccc(Cl)cc45)C3)nccn2n1 [Example 11, (1S,3R)-N^1-(6-Chloro-2-(trifluoromethyl)quinolin-4-yl)-N^3-(2-methylpyrazolo[1,5-a]pyrazin-4-yl)cyclohexane-1,3-diamine]",0.1 to 100,0.1 to 100,0.1 to 100
"FC(F)(F)c1cc(N[C@H]2CCC[C@@H](Nc3nccc4ncccc34)C2)c2cc(Cl)ccc2n1 [Example 5, (1S,3R)-N^1-(6-Chloro-2-(trifluoromethyl)quinolin-4-yl)-N^3-(1,6-naphthyridin-5-yl)cyclohexane-1,3-diamine]",0.1 to 100,0.1 to 100,0.1 to 100
"Fc1ccc2nc(C(F)(F)F)cc(N[C@H]3CCC[C@@H](Nc4nccc5ncccc45)C3)c2c1 [Example 25, (1S,3R)-N^1-(6-Fluoro-2-(trifluoromethyl)quinolin-4-yl)-N^3-(1,6-naphthyridin-5-yl)cyclohexane-1,3-diamine]",0.1 to 100,0.1 to 100,0.1 to 100
"FC(F)(F)c1cc(N[C@H]2CCC[C@@H](Nc3ncnc4ncccc34)C2)c2cc(Cl)ccc2n1 [Example 26, (1S,3R)-N^1-(6-Chloro-2-(trifluoromethyl)quinolin-4-yl)-N^3-(pyrido[2,3-d]pyrimidin-4-yl)cyclohexane-1,3-diamine]",0.1 to 100,0.1 to 100,0.1 to 100
"FC(F)(F)c1cc(N[C@H]2CCC[C@@H](Nc3nnc4n3CCOC4)C2)c2cc(Cl)ccc2n1 [Example 36, (1S,3R)-N^1-(6-Chloro-2-(trifluoromethyl)quinolin-4-yl)-N^3-(5,6-dihydro-8H-[1,2,4]triazolo[3,4-c][1,4]oxazin-3-yl)cyclohexane-1,3-diamine]",0.1 to 100,0.1 to 100,0.1 to 100
"Cc1ccc2nc(C(F)(F)F)cc(N[C@H]3CCC[C@@H](Nc4nccc5ncn(C)c45)C3)c2c1 [Example 17, (1S,3R)-N^1-(6-Methyl-2-(trifluoromethyl)quinolin-4-yl)-N^3-(3-methyl-3H-imidazo[4,5-c]pyridin-4-yl)cyclohexane-1,3-diamine]",0.1 to 100,0.1 to 100,0.1 to 100
"Cc1ncc2c(N[C@@H]3CCC[C@H](Nc4cc(C(F)(F)F)nc5ccc(Cl)cc45)C3)nccn12 [Example 10, (1S,3R)-N^1-(6-Chloro-2-(trifluoromethyl)quinolin-4-yl)-N^3-(3-methylimidazo[1,5-a]pyrazin-8-yl)cyclohexane-1,3-diamine]",0.1 to 100,0.1 to 100,0.1 to 100
"FC(F)(F)c1cc(N[C@H]2CCC[C@@H](Nc3nccn4cncc34)C2)c2cc(Cl)ccc2n1 [Example 9, (1S,3R)-N^1-(6-Chloro-2-(trifluoromethyl)quinolin-4-yl)-N^3-(imidazo[1,5-a]pyrazin-8-yl)cyclohexane-1,3-diamine]",0.1 to 100,0.1 to 100,0.1 to 100
"Cn1cc2c(N[C@@H]3CCC[C@H](Nc4cc(C(F)(F)F)nc5ccc(Cl)cc45)C3)nccc2n1 [Example 1, (1S,3R)-N^1-(6-Chloro-2-(trifluoromethyl)quinolin-4-yl)-N^3-(2-methyl-2H-pyrazolo[4,3-c]pyridin-4-yl)cyclohexane-1,3-diamine]",0.1 to 100,100 to 1000,0.1 to 100

# Reference: US20250270208A1, “BICYCLIC HETEROCYCLES AS MRGPRX2 ANTAGONISTS” (Incyte Corporation, priority 2023, published 2025)
